Measured values taken from patent US20210155670A1, “SYSTEMS AND METHODS FOR THE PREPARATION OF PEPTIDE-MHC-I COMPLEXES WITH NATIVE GLYCAN MODIFICATIONS” (The Regents of the University of California, priority 2019, published 2021).
“Also recorded” adds a separate entry of the source. Read-outs that look alike come from different tables or passages of the source. Ends that are not written are not given here.

What was measured:
[1] = molecular target: T1, HLA-A*68:02/TAPBPR complex (Homo sapiens, UniProt P04439+P61769, A269V/D140Y/D185E/E176V/E277Q/E87N/F33Y/G231S/I121R/I166T/I218V/L180W/N151K/P208A/P217A/Q86R/R138H/R169H/R297K/S129P/V36M); assay: Native gel shift assay of peptide binding to HLA-A*68:02/TAPBPR complex; details: Example 2, 10-molar excess of peptide
T1 construct: human beta-2 microglobulin signal peptide (N); TEV protease site (C, cleaved yes); FOS leucine zipper (C, cleaved yes); made in house; host or cells: CHO cells
Excerpt: CHO-derived HLA-A*02:01/TAPBPR complexes can be loaded with high-affinity TAX9 and MART-1 peptides (FIG. 11D). […] The two alleles have considerable sequence homology in the peptide-binding groove formed by the α1/α2 domains, resulting in a shared preference for a Val, Leu, Ala or Ile at the peptide anchor position 9, but marked variation at anchor position 2 where HLA-A*02:01 has a preference for Leu while HLA-A*68:02 prefers Thr (FIG. 11A). […] Structure-based modeling (Nerli and Sgourakis, bioRxiv, 2020.03.23.004176 (2020)) confirmed A-pocket hydrogen bonding interactions between peptide anchor position L2 with the K66 sidechain, Y7 with Y99 from HLA-A*02:01, and anchor position T2 with N66 and N63 from HLA-A*68:02 (FIG. 11B). According to the electrophoretic mobility shift assay, all predicted high-affinity peptides bound to HLA-A*02:01 and HLA-A*68:02 resulting in discrete pMHC-I protein bands. (FIG. 11C).
Gels were imaged using an Innotech FluoChem2 system (Genetic Technologies Grover, Mo.).

[2] = molecular target: T2, HLA-A*02:01/TAPBPR complex (Homo sapiens, UniProt P04439+P61769, D140Y/D185E/D98H/E176V/E277Q/G131W/G231S/I119V/I121R/I166T/I218V/N151K/N90K/P208A/P217A/Q86G/Q94H/R138H/R169H); assay: Native gel shift assay of peptide binding to HLA-A*02:01/TAPBPR complex
T2 construct: human beta-2 microglobulin signal peptide (N); TEV protease site (C, cleaved yes); FOS leucine zipper (C, cleaved yes); made in house; host or cells: CHO cells (CHO-K1s / CHO-K1s C1s-/-), co-transfected, secreted

[3] = molecular target: T3, HLA-A*24:02/TAPBPR complex (Homo sapiens, UniProt P04439+P61769, D101N/D140Y/E190D/F33S/G103R/G107R/I119L/I121M/L105A/N151K/N90K/Q86E/Q94H/R106L/R138H/R89G/T104I/V100E/W191G/Y123F); assay: Native gel electrophoresis of HLA-A*24:02/TAPBPR complex with peptides; format: binding; details: FIG. 14c
T3 construct: human beta-2 microglobulin signal peptide (N); TEV protease site (C, cleaved yes); FOS leucine zipper (C, cleaved yes); made in house; host or cells: CHO cells

[4] = Example 2, 10-fold molar excess of peptide, native gel

GLLGIGILTV [GM1]
pMHC-I band formation in electrophoretic mobility shift assay [1]: significant binding

LLFGVPVYV [TAX9]
native gel band shift of MHC-I (pMHC formation) [2]: resulted in a band shift
pMHC-I band formation in electrophoretic mobility shift assay [2, 4]: formation of discrete bands corresponding to properly conformed pMHC species; also recorded: can be loaded; also recorded: pMHC-I formation

RGPGRAFVFI [Peptide P18_I10]
native gel band shift of MHC-I (pMHC formation) [2]: did not
pMHC-I band formation in electrophoretic mobility shift assay [2, 4]: non-binding

RYPLTFGWCF [Nef138-10]
complex dissociation in the presence of peptide, native gel [3]: complex dissociation

TLACFVLAAV
pMHC-I band formation in electrophoretic mobility shift assay [2]: little or no binding

VYGFVRACL [PHOX2B]
complex dissociation in the presence of peptide, native gel [3]: complex dissociation

WLMWLIINL
pMHC-I band formation in electrophoretic mobility shift assay [2, 4]: little or no binding

YPNVNIHNF [NIH p29, non-specific (NS) negative control peptide]
native gel band shift of MHC-I (pMHC formation) ([2]; Example 1, SEC purified unzippered complex, 5:1 molar ratio, 1 h room temperature): did not
pMHC-I band formation in electrophoretic mobility shift assay [2, 4]: non-binding
